We go through four compounds from patent publication US20100113535A1, “TREATMENT OF PRESBYOPIA WITH ALPHA- PICOLINIC ACID AND ITS ANALOGS” (The Department of Veterans Affairs Technology Transfer …, priority 2005, published 2010).

Data set [1] relates to porcine lens epithelial (PLE) cells. Kind of data set: Toxicity of PA and its analogs to PLE cell growth (cell counts, 50% inhibitory concentration). Conditions: for IC50: Sus scrofa, 120 hours (five days) with substance, treated cell count equal to 50% of control. In kind it is cell-based. The procedure:
FIG. 5. Toxicity of Picolinic Acid and its analogs in Pig Lens Epithelial Cells. Pig lens epithelial cells were plated in quadruplicate in 24 well trays at 5000 cells/well using minimal essential media plus 10% fetal calf serum (10% FCS MEM) with antibiotics. At 24 hours after plating, substances were added with a media change, at appropriate concentrations. Cells were allowed to grow for an additional 120 hours in the presence of the various substances. Cells were then counted, four dishes, in duplicate, and the cell counts were expressed as a percentage of the control cell counts.
Growth curve data were obtained from cells plated without any agents. Cell counts were performed daily on a total of eight wells per point, by combining four wells per count and performing counts in duplicate.
The toxicity of PA and its analogs to the PLE cells was tested according to the method of Senderoff et al. (66) PLE cells were plated in 24 well trays at 5000 cells per well in 1 mL of tissue culture medium (see above). The medium was changed at 24 hours, and new medium containing the analogs was added. Five days after addition of substances, cell counts were performed using a total of four wells per point, by combining two wells per count, and performing counts in duplicate. Results were expressed as a percentage of the untreated or control cell counts.

The next data set relates to PLE cells. Kind of data set: Induction of apoptosis in PLE cells (DNA fragmentation detection kit). In kind it is cell-based, porcine. The conditions noted are these: for effect on monolayer growth, floating cells and DNA laddering staining: 48 hours, 3 mM picolinic acid, 0.3 mM fusaric acid; for state of cells at 72 hours: 3 mmol/L PA, 0.3 mmol/L FA, results not shown; for induction of apoptosis in PLE cells: discussion statement. As for the experimental part: FIG. 6. Induction of Apoptosis in PLE cells. PLE cells were grown in 35 mm dishes in tissue culture. Analogs were added to media 24 hours after cells were plated. After 48 hours of incubation, floating or supernatant cells were spun onto slides and stained using the DNA fragmentation kit. The conditions are as follows: A. Control monolayer; B. Control stained supernatant; C. 3 mM picolinic acid monolayer; D. 3 mM picolinic acid stained supernatant; E. 0.3 mM fusaric acid monolayer; F. 0.3 mM fusaric acid stained supernatant.
The ability of PA and its analogs to induce apoptosis was detected with the DNA fragmentation detection kit (Oncogene Research Products, Boston, Mass.). One of the molecular effects of apoptosis is the formation of oligonucleosomal DNA fragments by DNA laddering (67). The kit includes a Klenow DNA polymerase that labels 3′-OH terminals of DNA, which are formed in the laddering process. Incorporated biotinylated nucleotides are then detected with a chromogenic labeling system of streptavidin-horseradish peroxidase diaminobenzidine. Cells were plated in 35-mm wells at a density of 50,000 cells per well. 24 hours after plating, analogs were added concurrently with fresh media. Pictures were taken after 48 hours of exposure to the analogs. Floating cells were washed and placed in Saccomanno's fixative (Shandon, Pittsburgh, Pa.), centrifuged onto Superfrost slides (Fisher Scientific, Pittsburgh, Pa.) with a CytoSpin centrifuge (Shandon, Pittsburgh, Pa.), and stained according to the protocol given.
To test for the role of apoptosis in the toxicity of PA and its analogs, the PLE cells were exposed to 0.3 mmol/L FA and 3 mmol/L of PA.

For the next data set, the system named is corneal endothelium. Kind of data set: Toxicity in corneal endothelium (Janus Green staining of pig corneas). The conditions noted are these: for Janus Green staining relative to untreated control: 48 hours, corneal endothelium in 2% FCS M199; for Avg Abs650/SD (Janus Green stain eluted from trephine cut-outs of treated corneas): 48 hr in 2% FCS M-199, PA 3 mM, FA 0.3 mM, absorbance at 650 nm. As for the experimental part:
Testing of Toxicity in Corneal endothelium: To test for the effects of PA and FA on corneal endothelium, fresh corneas from pig eyes were aseptically dissected out, with a 2 mm scleral ring and placed in 2% FCS M-199 medium with antibiotics, as M-199 medium has previously been used for corneal experiments (84).
Times of incubation and concentrations which were used in the apoptosis experiment were implemented, i.e. 48 hours at 3 mM PA and 0.3 mM FA. Serum concentration of 2% was employed to maintain the corneal cells without undo stimulation. Corneas were rinsed with Hanks Balanced Salt Solution (HBSS) and stained for 90 seconds with 0.2 mL 1% Janus Green (85) in HBSS as a test for viability. The corneas were again rinsed. Negative controls were set up by placing corneas in 100% ethanol for 5 minutes prior to addition of Janus Green, to give staining in 100% “damaged” corneas. Using an 8 mm trephine, the central section of the cornea was punched out, and the dye was eluted with 2 ml 100% ethanol and the absorbance was measured at 650 nm. The Janus Green staining experiment of corneas was repeated twice. Duplicate samples were used for drug conditions and triplicate samples for controls. Janus green staining was also carried out on fresh cornea, for comparison purposes.

A further data set concerns WI-38 cells. Conditions: 0.5 mM fusaric acid, cited from earlier work.
[2] abbreviates: from FIG. 5, read-out: IC50 μg/mL.
Setting [3] is: from FIG. 5, read-out: IC50 mmol/L.

Read-outs that look alike come from different tables or passages of the source.

`O=C(O)c1cccc(C(=O)O)n1` [Dipicolinic acid]: the figures for the IC50 in data set [1] (setting [2]) and in data set [1] (setting [3]) were 185 µg/mL and 1.11 mmol/L, respectively. Also, the “times less toxic than PA” value in data set [1] (from IC50 data) amounted to 2.5 times.

Regarding `CCCCc1ccc(C(=O)O)nc1` [Fusaric acid, fusaric acid], in the data set with PLE cells, the “effect on monolayer growth, floating cells and DNA laddering staining” value (“effect on monolayer growth” below) is “many floating cells, with strong nuclear staining”; the “state of cells at 72 hours” value is “no living cells were seen”; the “induction of apoptosis in PLE cells” value is given as “rapidly induced apoptosis”. Moreover, in the data set on PLE cells (listed as FA), the “effect on monolayer growth” value is recorded as “significant cell death by the apoptotic pathway”. Further, in the data set on corneal endothelium, the “Janus Green staining relative to untreated control” value is recorded as “stained less than the untreated control” and the “Avg Abs650/SD (Janus Green stain eluted from trephine cut-outs of treated corneas)” value turned out to be 0.287 ± 0.011. Moreover, the IC50 in data set [1] (setting [2]) was 5.6 µg/mL. For the same compound, the IC50 in data set [1] (setting [3]) came out at 0.031 mmol/L. Besides, the “times more toxic than PA (on concentration basis)” value in data set [1] (from IC50 data) is “about 15 times”. Further, the “viability of confluent WI-38 cells” value in the data set with WI-38 cells (confluent cells, 48 hour incubation) was “no significant drop in viability”. Besides, the “decrease in viability of logarithmically growing WI-38 cells” value in the data set on WI-38 cells (logarithmically growing cells, by 30 hours) is listed as 76%.

On to `O=C(O)c1cccnc1` [Nicotinic acid, nicotinic acid], for which the IC50 stood at 539 µg/mL in data set [1] (setting [2]) and 4.38 mmol/L in data set [1] (setting [3]).

For `O=C(O)c1ccccn1` [Picolinic acid], in the data set with PLE cells, the “effect on monolayer growth” value is recorded as “inhibits growth of the monolayer with few floating cells”; the “state of cells at 72 hours” value was “many floating cells”; the “induction of apoptosis in PLE cells” value is recorded as “rapidly induced apoptosis”. In addition, in the data set with PLE cells (listed as PA), the “effect on monolayer growth” value is given as “inhibition of cell growth but little cell death”; the “state of cells at 72 hours” value is on record as “very few cells were still attached”. In the data set on corneal endothelium, the “Janus Green staining relative to untreated control” value is “stained less than the untreated control” and the “Avg Abs650/SD (Janus Green stain eluted from trephine cut-outs of treated corneas)” value turned out to be 0.321 ± 0.041. In data set [1] (setting [2]), the IC50 was 55.3 µg/mL. Further, the IC50 in data set [1] (setting [3]) worked out at 0.449 mmol/L.
